Numbers after ± are expanded uncertainties.
What was measured:
[1] = Liquid; for viscosity / mass density: 101 kPa; for viscosity: Capillary tube (Ostwald / Ubbelohde) method; for mass density: Vibrating tube method
[2] = xn = mol fraction of the nth substance listed; conditions: 101 kPa, Liquid, x2 = 0; for viscosity: Capillary tube (Ostwald / Ubbelohde) method; for mass density: Vibrating tube method

Row | Compound | viscosity ([1]; 283.15 K) | mass density ([1]; 283.15 K) | viscosity ([1]; 293.15 K) | mass density ([1]; 293.15 K) | viscosity ([1]; 303.15 K) | mass density ([1]; 303.15 K) | vapor or sublimation pressure ([1]; 303.15 K) | viscosity ([1]; 313.15 K) | mass density ([1]; 313.15 K) | viscosity ([2]; 283.15 K) | mass density ([2]; 283.15 K) | viscosity ([2]; 293.15 K) | mass density ([2]; 293.15 K) | viscosity ([2]; 303.15 K) | mass density ([2]; 303.15 K) | viscosity ([2]; 313.15 K) | mass density ([2]; 313.15 K)
1 | CC(=O)CC(C)C [4-methylpentan-2-one] | 0.655 ± 0.006 mPa·s | 809.8 ± 0.3 kg/m3 | 0.576 ± 0.005 mPa·s | 800.7 ± 0.3 kg/m3 | 0.511 ± 0.005 mPa·s | 791.6 ± 0.3 kg/m3 | 3.89 ± 0.11 kPa | 0.46 ± 0.004 mPa·s | 782.2 ± 0.3 kg/m3 |  |  |  |  |  |  |  | 
2 | CC(=O)CC(C)C [4-methylpentan-2-one] + ClC(Cl)Cl |  |  |  |  |  |  |  |  |  | 0.655 ± 0.006 mPa·s | 809.8 ± 0.3 kg/m3 | 0.576 ± 0.005 mPa·s | 800.7 ± 0.3 kg/m3 | 0.511 ± 0.005 mPa·s | 791.6 ± 0.3 kg/m3 | 0.46 ± 0.004 mPa·s | 782.2 ± 0.3 kg/m3
3 | ClC(Cl)Cl [trichloromethane] | 0.629 ± 0.005 mPa·s | 1507.3 ± 0.7 kg/m3 | 0.573 ± 0.005 mPa·s | 1488.4 ± 0.7 kg/m3 | 0.516 ± 0.005 mPa·s | 1469.4 ± 0.6 kg/m3 | 32.19 ± 0.33 kPa | 0.468 ± 0.004 mPa·s | 1450 ± 0.6 kg/m3 |  |  |  |  |  |  |  | 

From the NIST ThermoML archive (doi:10.1016/j.jct.2006.07.004)
